US20080200454A1, “CARBON-LINKED TETRAHYDRO-PYRAZOLO-PYRIDINE MODULATORS OF CATHEPSIN S” (priority 2007, published 2008)
Read-outs that look alike come from different tables or passages of the source.

Target: Recombinant human cathepsin S (CatS) (Homo sapiens, UniProt P25774)
Assay: Recombinant human cathepsin S (CatS) inhibition assay, fluorogenic substrate Z-Valine-Valine-Arginine-AMC;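 note: Baculovirus-expressed CatS in pH 5.0 sodium acetate buffer with DTT and NaCl, fluorescence read each minute over 20 min, inhibition derived from rate slope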

Sequence of Recombinant human cathepsin S (CatS) (P25774 115-331): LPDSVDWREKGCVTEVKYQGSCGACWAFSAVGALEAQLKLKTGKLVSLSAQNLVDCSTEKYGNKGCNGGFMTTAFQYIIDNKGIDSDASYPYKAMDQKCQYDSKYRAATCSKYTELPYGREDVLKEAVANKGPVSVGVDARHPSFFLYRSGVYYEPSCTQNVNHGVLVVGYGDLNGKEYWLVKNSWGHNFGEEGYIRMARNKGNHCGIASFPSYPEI

Compound	IC50 (CatS IC50)	also measured
CS(=O)(=O)N1CCc2c(c(-c3ccc(Cl)c(C#Cc4ccc(C(=O)NCCN5CCOCC5)cc4)c3)nn2CCCN2CCCCC2)C1 [Example 608, 4-({2-Chloro-5-[5-(methylsulfonyl)-1-(3-piperidin-1-ylpropyl)-4,5,6,7-tetrahydro-1H-pyrazolo[4,3-c]pyridin-3-yl]phenyl}ethynyl)-N-(2-morpholin-4-ylethyl)benzamide]	–	IC50: 70 nM
NC(=O)N1CCc2c(c(-c3ccc(Cl)c(C#Cc4ccc(C(=O)NC[C@@H]5CCCN5)cc4)c3)nn2CCCN2CCSCC2)C1 [Example 609, 3-{4-Chloro-3-[(4-{[(2S)-pyrrolidin-2-ylmethyl]carbamoyl}phenyl)ethynyl]phenyl}-1-(3-thiomorpholin-4-ylpropyl)-1,4,6,7-tetrahydro-5H-pyrazolo[4,3-c]pyridine-5-carboxamide]	–	IC50: 70 nM
C[C@H]1COCCN1CCCn1nc(-c2ccc(Cl)c(C#Cc3ccc(C(=O)NC[C@@H]4CCCN4)cc3)c2)c2c1CCN(C(=O)C(N)=O)C2 [Example 610, 4-{[5-(5-[Amino(oxo)acetyl]-1-{3-[(3S)-3-methylmorpholin-4-yl]propyl}-4,5,6,7-tetrahydro-1H-pyrazolo[4,3-c]pyridin-3-yl)-2-chlorophenyl]ethynyl}-N-[(2S)-pyrrolidin-2-ylmethyl]benzamide]	30 nM	–
CS(=O)(=O)N1CCc2c(c(-c3ccc(Cl)c(C#Cc4ccc(C(=O)NC[C@@H]5CCCN5)cc4)c3)nn2CCCN2CCCCC2)C1 [Example 611, 4-({2-Chloro-5-[5-(methylsulfonyl)-1-(3-piperidin-1-ylpropyl)-4,5,6,7-tetrahydro-1H-pyrazolo[4,3-c]pyridin-3-yl]phenyl}ethynyl)-N-[(2S)-pyrrolidin-2-ylmethyl]benzamide]	100 nM	–
CNCCCNC(=O)c1ccc(C#Cc2cc(-c3nn(CCCN4CCSCC4)c4c3CN(C(N)=O)CC4)ccc2Cl)cc1 [Example 612, 3-{4-Chloro-3-[(4-{[3-(methylamino)propyl]carbamoyl}phenyl)ethynyl]phenyl}-1-(3-thiomorpholin-4-ylpropyl)-1,4,6,7-tetrahydro-5H-pyrazolo[4,3-c]pyridine-5-carboxamide]	80 nM	–
CNCCCNC(=O)c1ccc(C#Cc2cc(-c3nn(CCCN4CCOC[C@@H]4C)c4c3CN(C(=O)C(N)=O)CC4)ccc2Cl)cc1 [Example 613, 4-{[5-(5-[Amino(oxo)acetyl]-1-{3-[(3S)-3-methylmorpholin-4-yl]propyl}-4,5,6,7-tetrahydro-1H-pyrazolo[4,3-c]pyridin-3-yl)-2-chlorophenyl]ethynyl}-N-[3-(methylamino)propyl]benzamide]	–	IC50: 40 nM
CNCCCNC(=O)c1ccc(C#Cc2cc(-c3nn(CCCN4CCCCC4)c4c3CN(S(C)(=O)=O)CC4)ccc2Cl)cc1 [Example 614, 4-({2-Chloro-5-[5-(methylsulfonyl)-1-(3-piperidin-1-ylpropyl)-4,5,6,7-tetrahydro-1H-pyrazolo[4,3-c]pyridin-3-yl]phenyl}ethynyl)-N-[3-(methylamino)propyl]benzamide]	60 nM	–
CN(C)Cc1cc(C#Cc2cc(-c3nn(CCCN4CCSCC4)c4c3CN(C(N)=O)CC4)ccc2Cl)ccc1Cl [Example 615, 3-[4-Chloro-3-({4-chloro-3-[(dimethylamino)methyl]phenyl}ethynyl)phenyl]-1-(3-thiomorpholin-4-ylpropyl)-1,4,6,7-tetrahydro-5H-pyrazolo[4,3-c]pyridine-5-carboxamide]	30 nM	–
C[C@H]1COCCN1CCCn1nc(-c2ccc(Cl)c(C#Cc3ccc(Cl)c(CN(C)C)c3)c2)c2c1CCN(C(=O)C(N)=O)C2 [Example 616, 2-(3-[4-Chloro-3-({4-chloro-3-[(dimethylamino)methyl]phenyl}ethynyl)phenyl]-1-{3-[(3S)-3-methylmorpholin-4-yl]propyl}-1,4,6,7-tetrahydro-5H-pyrazolo[4,3-c]pyridin-5-yl)-2-oxoacetamide]	12 nM	–
CN(C)Cc1cc(C#Cc2cc(-c3nn(CCCN4CCCCC4)c4c3CN(S(C)(=O)=O)CC4)ccc2Cl)ccc1Cl [Example 617, 1-[2-Chloro-5-({2-chloro-5-[5-(methylsulfonyl)-1-(3-piperidin-1-ylpropyl)-4,5,6,7-tetrahydro-1H-pyrazolo[4,3-c]pyridin-3-yl]phenyl}ethynyl)phenyl]-N,N-dimethylmethanamine]	40 nM	–
C[C@H]1COCCN1CCCn1nc(-c2ccc(Cl)c(C#Cc3ccc(CO)cc3)c2)c2c1CCN(C(=O)C(N)=O)C2 [Example 618, 2-[3-(4-Chloro-3-{[4-(hydroxymethyl)phenyl]ethynyl}phenyl)-1-{3-[(3S)-3-methylmorpholin-4-yl]propyl}-1,4,6,7-tetrahydro-5H-pyrazolo[4,3-c]pyridin-5-yl]-2-oxoacetamide]	20 nM	–
CC(C)NCc1cc(C#Cc2cc(-c3nn(CCCN4CCOC[C@@H]4C)c4c3CN(C(=O)C(N)=O)CC4)ccc2Cl)ccc1Cl [Example 619, 2-(3-{4-Chloro-3-[(4-chloro-3-{[(1-methylethyl)amino]methyl}phenyl)ethynyl]phenyl}-1-{3-[(3S)-3-methylmorpholin-4-yl]propyl}-1,4,6,7-tetrahydro-5H-pyrazolo[4,3-c]pyridin-5-yl)-2-oxoacetamide]	20 nM	–
C[C@@H]1COCCN1CCCn1nc(-c2ccc(Cl)c(C#Cc3ccc(CNCc4ccc(Cl)cc4)cc3)c2)c2c1CCN(C(=O)C(N)=O)C2 [Example 620, 2-(3-{4-Chloro-3-[(4-{[(4-chlorobenzyl)amino]methyl}phenyl)ethynyl]phenyl}-1-{3-[(3R)-3-methylmorpholin-4-yl]propyl}-1,4,6,7-tetrahydro-5H-pyrazolo[4,3-c]pyridin-5-yl)-2-oxoacetamide]	–	IC50: 150 nM
(2S)-1-(4,4′-Bipiperidin-1-yl)-3-[3-{4-chloro-3-[3-(diethylamino)prop-1-yn-1-yl]phenyl}-5-(methylsulfonyl)-4,5,6,7-tetrahydro-1H-pyrazolo[4,3-c]pyridin-1-yl]propan-2-ol [Example 471]	–	IC50 (read-out: CatS IC50, Table 4, average of results obtained): 7420 nM
